Data reported in patent US20120315648A1, “METHOD OF IDENTIFICATION OF CELLS THAT SHOW SENSITIVITY TO MODULATION OF SIGNALING MEDIATED BY A FIBROBLAST GROWTH FACTOR RECEPTOR OR A VARIANT THEREOF” (priority 2007, published 2012).
“Also recorded” adds a separate entry of the source.

Experiments:
[1] = system: RT112 bladder cancer cell line; assay: Cell proliferation assay (methylene blue, 96-well), RT112; type: cell-based; settings: Homo sapiens, RT-112; RT112 bladder cancer cells, 72 h, average of several independent assays; read-out: IC50 (nM) ± SD, proliferation inhibition
Description: (§1) The bladder carcinoma cell lines are grown in MEM EBS (Minimum Essential Medium with Earls Basal Salts) (Amimed, Allschwil, Switzerland, #1-31F0-I) supplemented with 1% L-glutamine (Amimed #5-10K00-H), 1% MEM NEAA (MEM Non-essential Amino Acid Solution) (Amimed #5-13K00-H), 1% Na- pyruvate (Amimed #5-60F00-H) and 10% FCS (Gibco, Invitrogen AG, Basel, Schweiz, #10082-147).
(§2) In detail, FGF-R1, FGF-R2 and FGF-R4 expression is determined by Western Blot using specific antibodies, respectively: sc-121 (Santa Cruz), sc-122 (Santa Cruz) and sc-124 (Santa Cruz). […] Cell proliferation is measured in 96-well plates. […] Upon addition of 200 μl/well HCl (3%) and incubation for 30 min at RT on a plate shaker, the Optical Density (OD) at 650 nm is measured. The concentration of inhibitor 1 providing 50% of proliferation inhibition is calculated using Excel module.
(§3) The FGF-R dependency as well as sensitivity to inhibitor 1 and/or to inhibitor 2 for each of the indicated cell lines is characterized as indicated above. The effect of inhibitor 1 and inhibitor 2 on cell viability is assessed by means of proliferation assays; the IC50s shown are the average IC50s of several independent assays (their number given by N).

[2] = system: RT4 bladder cancer cell line; assay: Cell proliferation assay (methylene blue, 96-well), RT4; type: cell-based; settings: Homo sapiens; RT4 bladder cancer cells, 72 h, average of several independent assays; read-out: IC50 (nM) ± SD, proliferation inhibition
Description: as §1, §2, §3

[3] = system: VMCUB1 bladder carcinoma cell line; assay: Cell proliferation assay (methylene blue, 96-well), VMCUB1; type: cell-based, human; settings: for IC50: Homo sapiens, VM-CUB-1, VMCUB1 bladder cancer cells, 72 h, read-out: IC50 (nM) ± SD, proliferation inhibition; for sensitivity of growth to inhibition (in words): VMCUB1 cells
Description: VMCUB-1: human urinary bladder transitional cell carcinoma established from a primary bladder carcinoma. Stage and histological grade are not recorded (Masters et al. 1986, loc. cit.). Cells are obtained from DSMZ ACC #400.
as §1
(§4) In detail, FGF-R1, FGF-R2 and FGF-R4 expression is determined by Western Blot using specific antibodies, respectively: sc-121 (Santa Cruz), sc-122 (Santa Cruz) and sc-124 (Santa Cruz). To determine the expression of FGF-R3, first FGF-R3 is immunoprecipitated with the antibody F-0425 from Sigma, and the immunocomplexes are subjected to Western Blot using the antibody F-0425 from Sigma. Cell proliferation is measured in 96-well plates. The cells are seeded in a volume of 100 μl per well in the growth media given above. For RT 112, RT4 and SUM52 8500 cells/well are seeded, for VMCUB1, J82, HT1197 and KMS11, 5000 cells/well are seeded, for OPM2 30000 cells/well are seeded. Medium containing FGF-R inhibitor 1, FGFR inhibitor 2 or (as control) DMSO is added 24 h after seeding, respectively. After 72 h, cells are fixed by addition of 25 μl/well glutaraldehyde (20%) for 10 min at room temperature (RT). Cells are then washed twice with 200 μl/well H2O and 100 μl Methylene Blue (0.05%) are added. After incubation for 10 min at RT, cells are washed 3× with 200 μl/well H2O. Upon addition of 200 μl/well HCl (3%) and incubation for 30 min at RT on a plate shaker, the Optical Density (OD) at 650 nm is measured. The concentration of inhibitor 1 providing 50% of proliferation inhibition is calculated using Excel module.
as §3

[4] = system: J82 bladder carcinoma cell line; assay: Cell proliferation assay (methylene blue, 96-well), J82; type: cell-based, human; settings: for IC50: Homo sapiens, J82 bladder cancer cells, 72 h, read-out: IC50 (nM) ± SD, proliferation inhibition; for sensitivity of growth to inhibition (in words): J82 cells
Description: J82: human urinary bladder transitional cell carcinoma established from a primary bladder carcinoma, histological grade G3, stage T3 (Masters et al. 1986, loc. cit.). Cells are obtained from ATCC # HTB-1.
as §1, §4, §3

[5] = system: HT1197 bladder carcinoma cell line; assay: Cell proliferation assay (methylene blue, 96-well), HT1197; type: cell-based, human; settings: for sensitivity of growth to inhibition (in words): HT1197 cells; for IC50: Homo sapiens, HT1197 bladder cancer cells, 72 h, read-out: IC50 (nM) ± SD, proliferation inhibition
Description: HT1197: human urinary bladder transitional cell carcinoma established from a recurrent bladder carcinoma, histological grade G4, stage T2 (Masters et al. 1986, loc. cit.). Cells are obtained from ATCC # CRL-1473.
as §1, §4, §3

[6] = system: OPM2 multiple myeloma cell line; assay: Cell proliferation assay (methylene blue, 96-well), OPM2; type: cell-based; settings: Homo sapiens, OPM-2; OPM2 multiple myeloma cells, 72 h; read-out: IC50 (nM) ± SD, proliferation inhibition
Excerpt: (§5) OPM2 and KMS11: human multiple myeloma (MM) cell lines derived from end-stage disease patients. OPM2 cells are obtained from DSMZ ACC #50.
(§6) KMS11 cells are provide by Dr. T Otsuki, Kawasaki Medical School, Okayama, Japan. Both cell lines are reported to carry the t(4,14) translocation and express a mutated, constitutively activated form of FGF-R3. In particular, OPM2 cells harbour a mutation in the ATP binding pocket in the kinase domain, which results in a change of lysine in position 650 into glutamic acid. KMS11 cells harbor a mutation in the extracellular domain of the receptor changing tyrosine in position 373 into cysteine. Both cell lines are grown in RPMI 1640 (Gibco #21875) supplemented with 1% L-glutamine (Amimed #5-10K00-H) and 20% FCS (Gibco #10082-147).
as §2, with “module. […]” for “module.”

[7] = system: KMS11 multiple myeloma cell line; assay: Cell proliferation assay (methylene blue, 96-well), KMS11; type: cell-based; settings: Homo sapiens, KMS-11; KMS11 multiple myeloma cells, 72 h; read-out: IC50 (nM) ± SD, proliferation inhibition
Excerpt: as §5, §6
as §2, with “module. […]” for “module.”

[8] = system: FRS-2 tyrosine phosphorylation in RT4 cells; assay: FRS-2 tyrosine phosphorylation after FGF-R inhibitor treatment (IP/Western Blot), RT4 cells; type: cell-based, human; settings: RT4 cells treated with inhibitor, FIG. 2A
Description: FIG. 2: Comparative analysis of FRS-2 phosphorylation following treatment with the FGF-R inhibitor PD173074 (inhibitor 1, see Methods in Example 1) in the RT4 cells, in the case of RT112 with TKI258/CHIR258, 4-Amino-5-fluoro-3[6-(4-methyl-1-piperazinyl)-1H-benzimidazol-2-yl]-2(1H)-quinolinone (inhibitor 2, see Methods in Example 1). The cell lines indicated are treated as shown. FRS-2 tyrosine phosphorylation is determined by immunoprecipitation with a specific FRS-2 antibody followed by […] Western Blotting, or by western blot using an antibody that detects phosphorylated Tyr196 on FRS2. […] Inhib. 1=inhibitor 1, Inhib. 2=inhibitor 2, DMSO=dimethyl sulfoxide.
(§7) Cells are solubilized in 1% Triton extraction buffer containing protease and phosphatase inhibitors (“lysis buffer” 50 mM Tris pH 7.5, 150 mM NaCl, 1 mM EGTA, 5 mM EDTA, 1% Triton, 2 mM NaVanadate, 1 mM PMSF and protease inhibition cocktail from Hoffmann-LaRoche, Basel, Switzerland, #1187358001). Lysates are clarified by centrifugation at 12000×g for 15 min and protein concentration is determined using the DC Protein Assay Reagents (Bio Rad, Bio-Rad Laboratories, Inc., Hercules, Calif., USA, #500-0116) (an assay based on the method of Bradford, M., see Anal. Biochem., 72, 248 (1976), employing Coomassie Blue®, ICI) and a Bovine Serum Albumin (BSA) standard. […]

[9] = system: SUM52 breast carcinoma cell line; assay: Cell proliferation assay (methylene blue, 96-well), SUM52; type: cell-based; settings: Homo sapiens; SUM52 breast cancer cells, 72 h; read-out: IC50 (nM) ± SD, proliferation inhibition
Description: as §4, with “After 72 h, cells are fixed by addition of 25 μl/well glutaraldehyde (20%) for 10 min at room temperature (RT). Cells are then washed twice with 200 μl/well H2O and 100 μl Methylene Blue (0.05%) are added. After incubation for 10 min at RT, cells are washed 3× with 200 μl/well H2O.” left out
as §3

[10] = system: FRS-2 tyrosine phosphorylation in RT112 cells; assay: FRS-2 tyrosine phosphorylation after FGF-R inhibitor treatment (IP/Western Blot), RT112 cells; type: cell-based, human; settings: RT112 cells treated with inhibitor, FIG. 2B
Description: The cell lines indicated are treated as shown. FRS-2 tyrosine phosphorylation is determined by immunoprecipitation with a specific FRS-2 antibody followed by anti-FRS-2 Western Blotting, or by western blot using an antibody that detects phosphorylated Tyr196 on FRS2.
Immunocomplexes are collected with protein A- or protein G-sepharose (Sigma, # P-9424; Sigma, # P-3296) and washed 3 × with lysis buffer. Bound proteins are released by boiling in 2 × sample buffer (20% SDS, 20% glycerol, 160 mM Tris pH 6.8, 4% β-mercaptoethanol, 0.04% bromo-phenol blue). […]

[11] = system: FRS-2 tyrosine phosphorylation in RT112 cells; assay: FRS-2 tyrosine phosphorylation upon growth factor stimulation (IP/Western Blot), RT112 cells; type: cell-based, human; settings: aFGF/heparin 50 ng/ml//5 μg/ml, EGF 10 ng/ml, insulin 5 μg/ml, FIG. 3
Description: (§8) FIG. 3: Comparative analysis of FRS-2 tyrosine phosphorylation upon growth factor stimulation: The bladder cancer cell lines RT112 and […] are stimulated with aFGF/heparin (50 ng/ml//5 μg/ml), EGF (10 ng/ml) (from R & D Systems, Inc., Minneapolis, Minn., USA; #236-EG-200) or insulin (5 μg/ml) (Sigma, Sigma-Aldrich, Inc., St. Louis, Mo., USA; #1882). Cells are lysed and total protein lysates are recovered. FRS-2 tyrosine phosphorylation is determined by immunoprecipitation followed by anti-pTyr antibody Western Blotting, using antibodies mentioned in Table 1 of Example 1. […] Equal amount of MAPK protein is monitored by Western Blotting with α-MAPK (MAPK in Table 1 in Example 1). […]
as §7

[12] = system: MAPK activation in RT112 cells; assay: MAPK activation upon growth factor stimulation (anti-phosphoMAPK Western Blot), RT112 cells; type: cell-based, human; settings: EGF 10 ng/ml, insulin 5 μg/ml, FIG. 3
Description: as §8, §7

Molecule	IC50 [1] [nM]	IC50 [2] [nM]	IC50 [3] [nM]	sensitivity of growth to inhibition (in words) [3]	IC50 [4] [nM]	sensitivity of growth to inhibition (in words) [4]	sensitivity of growth to inhibition (in words) [5]	IC50 [5] [nM]	IC50 [6] [nM]	IC50 [7] [nM]	effect on FRS-2 tyrosine phosphorylation [8]	IC50 [9] [nM]	effect on FRS-2 tyrosine phosphorylation [10]	induction of FRS-2 tyrosine phosphorylation [11]	MAPK activation (pMAPK) [12]
CCN(CC)CCCCNc1ncc2cc(-c3cc(OC)cc(OC)c3)c(NC(=O)NC(C)(C)C)nc2n1 [Inhibitor 1, PD173074]	14 ± 3	28 ± 8	> 3000	resistant to inhibition	> 3000	resistant to inhibition	resistant to inhibition	> 3000	148 ± 31	50 ± 14	abolish FRS-2 tyrosine phosphorylation; also recorded: completely inhibits FRS-2 phosphorylation				
CN1CCN(c2ccc3nc(-c4c(N)c5c(F)cccc5[nH]c4=O)[nH]c3c2)CC1 [Inhibitor 2, 4-Amino-5-fluoro-3[6-(4-methyl-1-piperazinyl)-1H-benzimidazol-2-yl]-2(1H)-quinolinone]	60 ± 20	134 ± 58	> 2000	resistant to inhibition	> 3000	resistant to inhibition	resistant to inhibition	> 3000		93		190 ± 58	abolish FRS-2 tyrosine phosphorylation		
insulin														fail to induce phospho-FRS-2	activate MAPK
